Data from patent US20260209777A1, “TARGETING GLYCOSYLPHOSPHATIDYLINOSITOL (GPI) PATHWAY PROTEINS TO TREAT OVARIAN CANCER” (UNIVERSITY OF MASSACHUSETTS, priority 2023, published 2026).

Key:
Assay type in all cases: cell-based, human
normal B cells = assay: In vitro phagocytosis assay of normal B cells by PBMC-derived M2 macrophages; conditions: for phagocytosis of B cells: bestatin 20 μM, tosedostat 10 μM vs DMSO, anti-CD24 antibody (clone SN3) vs IgG (FIG. 9B); for selectivity, CD24+ ovarian cancer cells relative to normal CD24+ B cells: comparison of FIG. 9B and 9C
Source text: Macrophage Generation and Stimulation: Primary human donor-derived macrophages were generated as described previously (Martinez, Curr Protocol Immunol 2012, Chapter 14:14.28.1-14.28.23). In brief, Leukopaks from anonymous donors were obtained from the Rhode Island Blood (Providence, RI) and peripheral blood […] (PBMCs) were isolated by density gradients centrifugation using Ficoll Paque Plus (Sigma-Aldrich, Cat #17-1440-02) followed by RBC lysis using RBC lysis buffer (eBioscience, Cat #00-4333-57). For monocyte isolation, PBMCs were incubated in Monocyte Attachment Medium (Sigma-Aldrich, Cat #C-28051) for 1 hour at 37° C. and 5% CO2 and then washed three times in Iscove's Modified Dulbecco's Medium (IMDM) (Gibco, Cat #12440053) to remove non-adherent cells. The remaining monocytes were detached and seeded in 96-well plates and cultured at 37° C. and 5% CO2 in IMDM supplemented with 10% FBS (Atlanta Biologicals, Cat #S11550) and 20 ng/ml recombinant human M-CSF (Peprotech, Cat #AF-300-25). After 4 days monocytes were then treated with 20 ng/ml recombinant human IL-4 (Peprotech, Cat #200-04) and 10 ng/mL recombinant human IL-10 (PeproTech, Cat #200-10) for another 3-4 days to obtain M2 polarized macrophages. Macrophage differentiation was confirmed morphologically using microscopy. M2-macrophage polarization was confirmed by immunophenotyping of the M2 marker CD206 using PE-conjugated anti-human anti-CD206 antibody (BioLegend, Cat #321106, clone 15-2, 1:100 dilution). Primary B-cell Isolation and Culture: Pan B cells were isolated by negative selection from PBMCs isolated from Leukopaks (as described above) using a MojoSort Human Pan B Cell Isolation Kit (BioLegend, Cat #480081) according to the manufacturer's instructions. The purity of B cells was confirmed to be >95% by flow cytometry using a FITC anti-human CD19 antibody (BioLegend, Cat #302205, clone HIB19). B cells were cultured in RPMI 1640 medium supplemented with 5% human serum (Sigma-Aldrich, Cat #H6914), MEM non-essential amino acids solution (Gibco, Cat #1140050), and recombinant human IL-2 (50 ng/ml) (PeproTech, Cat #200-02) and IL-4 (10 ng/ml) (PeproTech, Cat #200-04). In vitro Phagocytosis Assays: To facilitate the quantification of phagocytic events, we adapted a microscopy-based fluorescence phagocytosis […] al., J Immunol Methods 2009, 342(1-2):71-7; Lindner et al., Biotechniques 2020, 68(5):245-250) for use with a Celigo imaging cytometer. […] Phagocytic events were quantified by counting the number of red fluorescent (pHrodo+) cells per well using a Celigo Imaging Cytometer (Nexcelom). […]

CD24 on normal B cells = assay: CD24 flow cytometry analysis in primary B cells; conditions: 20 μM bestatin or 10 μM tosedostat vs DMSO (FIG. 9A)
Procedure: Flow Cytometry Analysis: For cell surface protein staining, 1×10^5-1×10^6 cells were first incubated with Fc receptor blocking solution, Human TruStain FcX™ (BioLegend, Cat #422301) for 10 minutes at room temperature. Cells were washed once in FACS buffer (1×PBS, 1.0% bovine serum albumin (BSA) (Sigma) and 0.2% sodium azide (Sigma), and then incubated with antibodies (given below) for 30 minutes at 4° C. in the dark. Cells were also stained with 7-AAD (Biolegend, Cat #420404) for dead cell exclusion, and flow cytometry analysis was performed using a Bio-Rad ZE5 Cell Analyzer. Following antibodies used in this study (all antibodies were used at 1:50 dilution unless otherwise noted): APC anti-human CD24 (BioLegend, Cat #311118, clone ML5), PE anti-human CD24 (eBioscience, Cat #12-0247-42, clone SN3), APC anti-human CD47 (BioLegend, Cat #323124, clone CC2C6), APC anti-human § 2-microglobulin (BioLegend, Cat #395711, clone A17082A), PE anti-human HLA-A2 (MHC-class I) (BioLegend, Cat #343305, clone BB7.2), APC anti-human CD11b (BioLegend, Cat #982604, clone ICRF44), APC anti-mouse F4/80 antibody (BioLegend, Cat #123116, clone BM8), APC-streptavidin (Thermo Fisher Scientific, Cat #SA1005, 1:100 dilution), PE anti-Calreticulin (Invitrogen, Catalog #MA5-15382, 1:200 dilution). […]

SKOV3 cells = assay: In vitro phagocytosis assay of SKOV3 cells by PBMC-derived M2 macrophages; conditions: bestatin 20 μM, tosedostat 20 μM, vs DMSO

| Structure (SMILES) | phagocytosis of B cells (normal B cells) | selectivity, CD24+ ovarian cancer cells relative to normal CD24+ B cells (normal B cells) | CD24 levels on B cells (MFI) (CD24 on normal B cells) | macrophage-mediated phagocytosis (SKOV3 cells) |
| --- | --- | --- | --- | --- |
| CC(C)C[C@@H](C(=O)N[C@H](C(=O)OC1CCCC1)c1ccccc1)[C@H](O)C(=O)NO [tosedostat] | did not undergo phagocytosis | selectivity toward CD24+ ovarian cancer cells relative to normal CD24+ B cells | not diminished | increased |
| CC(C)C[C@H](NC(=O)[C@@H](O)[C@H](N)Cc1ccccc1)C(=O)O [bestatin] | did not undergo phagocytosis | selectivity toward CD24+ ovarian cancer cells relative to normal CD24+ B cells | not diminished | substantially increased |
